Laboratory results as given in article PMC5238430, “Prebiotic galactooligosaccharides activate mucin and pectic galactan utilization pathways in the human gut symbiont Bacteroides thetaiotaomicron” (Scientific Reports, 2017).

Biological target: T1, BtGH53 (BT_4668), GH53 endo-beta-(1->4)-galactanase (Bacteroides thetaiotaomicron, UniProt Q89YR3)
T1 sequence (Q89YR3 23-353): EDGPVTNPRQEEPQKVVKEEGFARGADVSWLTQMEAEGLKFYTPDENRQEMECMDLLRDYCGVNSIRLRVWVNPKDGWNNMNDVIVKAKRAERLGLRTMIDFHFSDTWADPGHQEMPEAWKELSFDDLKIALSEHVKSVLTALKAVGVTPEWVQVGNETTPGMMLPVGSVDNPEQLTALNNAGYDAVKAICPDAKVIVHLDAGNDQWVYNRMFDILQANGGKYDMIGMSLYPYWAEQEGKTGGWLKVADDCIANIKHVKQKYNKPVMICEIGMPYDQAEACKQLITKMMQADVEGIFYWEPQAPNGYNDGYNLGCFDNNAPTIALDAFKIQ
Assay: TLC and HPAEC-PAD of hydrolysis products
Type: biochemical
Settings: component of purified GOS mixture (TS0903), not tested singly; 20 mM Tris pH 7.5, 150 mM NaCl, 37 °C, 16 h

OC[C@H]1O[C@@H](O[C@@H]2[C@H](O)[C@@H](O)[C@H](O[C@H]3[C@H](O)[C@@H](O)C(O)O[C@@H]3CO)O[C@@H]2CO)[C@H](O)[C@@H](O)[C@H]1O (stereo partly drawn) [compound 9, β-D-Galp-(1 → 4)-β-D-Galp-(1 → 4)-β-D-Glc]
TLC and HPAEC-PAD of hydrolysis products: BtGH53 hydrolyzes linear DP3 and higher GOS compounds
